Experimental data reported in patent publication US20250345426A1, “METHODS FOR MAKING AND USING THERAPEUTIC CELLS” (THE REGENTS OF THE UNIVERSITY OF CALIFORNIA, priority 2022, published 2025).
“Also recorded” adds a separate entry of the source.

Columns and labels:
Raji lymphoma = Raji lymphoma model in NSG mice treated with inhibitor-treated Leu16 CAR-T cells; assay type: in vivo; conditions: Raji i.v., two doses of inhibitor-treated Leu16 CAR-T cells, vs vehicle-treated
Source text: (§1) FIG. 3A-G. Pharmacological modulation of Leu16 CAR-T cells modestly dampens tonic signaling while enhancing anti-tumor efficacy. (A) Pictorial representation of the correlation between tonic signaling-modulated rituximab CAR-T cells and in vivo anti-tumor efficacy. (B) Pictorial representation of pharmacological modulation strategy aimed to either increase or decrease Leu16 CAR tonic signaling; c-MYC (MYCi975) and SREBP (betulin) inhibition increased tonic signaling whereas mTORC1 (rapamycin) inhibition decreased tonic signaling in rituximab CAR-T cells. (C) % distribution of T-cell subtypes in CAR^+ T cells after 6 days of pharmacological modulation (left) and Tn/scm enrichment (right). The bars in FIG. 3C, right graph, represent data from, EGFRt, Leu16-28z (vehicle), Leu16-28z (MYCi975), Leu16-28z (Betulin), and Leu16-28z (Rapamycin), respectively, from left to right. (D) Activation and exhaustion marker expression by CAR^+ T cells in the absence of antigen stimulation after 6 days of pharmacological modulation. […] (F) Tumor signal (in photons/sec/cm2/sr) in individual animals as quantified by bioluminescence imaging. […]
In vivo studies. […] Tumor progression/regression was monitored with an IVIS Illumina III LT Imaging System (PerkinElmer). […]

rituximab CAR-T cells = assay: Antigen-independent CAR-T cell metabolic activity, rituximab CAR-T cells (data not shown); assay type: cell-based, human
Source text: Cell line generation and maintenance. HEK 293T and Raji cells were obtained from ATCC. Leu16 and rituximab scFv-expressing HEK293T cell lines were generated by retroviral transduction of HEK293T cells to express each scFv fused with EGFP via a 2A peptide, and EGFP+ cells were sorted by fluorescence-activated cell sorting (FACS) on a FACSAria (II) cell sorter (BD Bioscience) at the UCLA Flow Cytometry Core Facility. CD20+K562 cells were generated by transduction of K562 cells with a retroviral construct encoding full-length CD20. K562 cells with varying CD20 expression levels were generated by FACS sorting of CD20+K562 into bins of different antigen densities. CHLA-255-Luc-EGFP cells were generated by retroviral transduction of CHLA-255-Luc to express EGFP, and EGFP+ cells were enriched by FACS. HEK 293T cells were cultured in DMEM (HyClone) supplemented with 10% heat-inactivated FBS (HI-FBS; ThermoFisher). CHLA-255-Luc-EGFP cells were cultured in IMDM (ThermoFisher) with 10% HI-FBS. Primary human T cells, Raji, and K562 cells were cultured in RPMI-1640 (Lonza) with 10% HI-FBS. For CAR-T cells used in metabolomics studies, T cells were cultured in RPMI-1640 containing 2 g/L of 1,2-13C-glucose with 10% heat-inactivated dialyzed FBS (HI-dFBS).

Leu16 CAR-T cells [1] = assay: Antigen-independent activation and exhaustion marker expression by flow cytometry, Leu16 CAR-T cells; assay type: cell-based, human; conditions: equivalent concentrations as for rituximab CAR-T cells
Source text: as §1, with “(right).” for “(right). The bars in FIG. 3C, right graph, represent data from, EGFRt, Leu16-28z (vehicle), Leu16-28z (MYCi975), Leu16-28z (Betulin), and Leu16-28z (Rapamycin), respectively, from left to right. (D) Activation and exhaustion marker expression by CAR^+ T cells in the absence of antigen stimulation after 6 days of pharmacological modulation.”
(§2) Antibody staining for flow-cytometry analysis. EGFRt expression was measured with biotinylated cetuximab (Eli Lilly; biotinylated in-house), followed by PE-conjugated streptavidin (Jackson ImmunoResearch #016-110-084). CAR expression was quantified by surface epitope staining using anti-Fc (Alexa Fluor 488, Jackson ImmunoResearch #709-546-098). […] T-cell subtype of CAR-T cells was evaluated by antibody staining for CD45RO (VioBlue®, clone REA611, Miltenyi #130-119-620) and CD62L (APC, clone DREG56, Invitrogen #17-0629-42) after 5-6 days of inhibitor culture (FIG. 1, FIG. 3). […]

Leu16 CAR-T cells [2] = assay: T-cell subtype distribution and Tn/scm enrichment, Leu16 CAR-T cells; assay type: cell-based, human; conditions: 6 days of pharmacological modulation, relative to vehicle
Source text: as §1, with “(right).” for “(right). The bars in FIG. 3C, right graph, represent data from, EGFRt, Leu16-28z (vehicle), Leu16-28z (MYCi975), Leu16-28z (Betulin), and Leu16-28z (Rapamycin), respectively, from left to right. (D) Activation and exhaustion marker expression by CAR^+ T cells in the absence of antigen stimulation after 6 days of pharmacological modulation.”
as §2

Molecule | in vivo functionality: tumor control and survival (Raji lymphoma) | antigen-independent CAR-T cell metabolic activity (rituximab CAR-T cells) | tonic signaling (Leu16 CAR-T cells [1]) | enrichment of Tn/scm cells (Leu16 CAR-T cells [2])
C=C(C)[C@@H]1CC[C@]2(CO)CC[C@]3(C)[C@H](CC[C@@H]4[C@@]5(C)CC[C@H](O)C(C)(C)[C@@H]5CC[C@]43C)[C@@H]12 [betulin, Betulin] | prolonged tumor control and survival | increases | dampened; also recorded: significant decrease | increased enrichment
MYCi975 |  |  | dampened | increased enrichment
